Assay [1] deals with T1, Neuronal acetylcholine receptor subunit alpha-9 (Homo sapiens, UniProt Q9UGM1). Kind of assay: Antagonist activity at human alpha9 nAChR expressed in xenopus laevis oocytes assessed as inhibition of acetylcholine-induced response by two electrode voltage-clamp assay. The format is cell-based, Oocyte. (In general: Two-electrode voltage clamp is typically applied to oocytes expressing channels or transporters.)

The target of assay [2] is T2, Neuronal acetylcholine receptor subunit alpha-7 (Homo sapiens, UniProt P36544). Kind of assay: Silent agonist activity at human alpha7 nAChR expressed in acetylcholine-treated xenopus laevis oocytes at 30 uM in presence of PNU-120596 by two electrode voltage-clamp assay. Type of assay: cell-based. Particulars: Oocyte.
Assay [3] concerns the target T2, Neuronal acetylcholine receptor subunit alpha-7. Kind of assay: Antagonist activity at human alpha7 nAChR expressed in acetylcholine-treated xenopus laevis oocytes at 30 uM by two electrode voltage-clamp assay. Type of assay: cell-based. The following applies: Oocyte, filed as antagonist.
For assay [4] the target is unchanged. Kind of assay: Antagonist activity at human alpha7 nAChR expressed in xenopus laevis oocytes assessed as inhibition of acetylcholine-induced response by two electrode voltage-clamp assay. The format is cell-based, Oocyte.
Assay [5] deals with Mus musculus. Kind of assay: Anti-inflammatory activity in C57BL/6J mouse model of CFA-induced chronic inflammatory pain assessed as reduction in paw edema at 1 to 3 mg/kg, ip measured for 0.5 to 6 hrs. Type of assay: functional, organism-based. The following applies: dose 1-3 mg/kg, time 0.5-6 hrs.
The subject of assay [6] is Mus musculus. Kind of assay: Effect on von Frey responses in C57BL/6J mouse model of CFA-induced chronic inflammatory pain at 1 to 3 mg/kg, ip measured for 0.5 to 6 hrs. The format is functional, organism-based. The following applies: dose 1-3 mg/kg, time 0.5-6 hrs.
Assay [7] relates to Mus musculus. Kind of assay: Anti-allodynic effect in C57BL/6J mouse model of CFA-induced chronic inflammatory pain assessed as reduction in mechanical hypersensitivity at 3 mg/kg, ip measured after 1 hr. Type of assay: functional, organism-based.
Assay [8] deals with Mus musculus. Put plainly: Effect on locomotor activity in C57BL/6J mouse model of CFA-induced chronic inflammatory pain at 3 mg/kg, ip measured for 0.5 to 6 hrs. The format is functional, organism-based. The following applies: time 0.5-6 hrs.
Assay [9] addresses T1, Neuronal acetylcholine receptor subunit alpha-9. Kind of assay: Agonist activity at human alpha9 nAChR expressed in xenopus laevis oocytes assessed as activation of acetylcholine-induced response by two electrode voltage-clamp assay (reference value: 1). Type of assay: cell-based. The following applies: Oocyte, filed as agonist.
The target is the same in assay [10]. Kind of assay: Agonist activity at human alpha9 nAChR expressed in xenopus laevis oocytes assessed as activation of acetylcholine-induced response by two electrode voltage-clamp assay. Type of assay: cell-based, Oocyte.
Assay [11] relates to Mus musculus. Put plainly: Anti-allodynic effect in C57BL/6J mouse model of CFA-induced chronic inflammatory pain assessed as reduction in mechanical hypersensitivity at 3 mg/kg, ip measured after 6 hrs. The format is functional, organism-based.
The target in assay [12] is T2, Neuronal acetylcholine receptor subunit alpha-7. Kind of assay: Agonist activity at human alpha7 nAChR expressed in xenopus laevis oocytes assessed as activation of acetylcholine-induced response by two electrode voltage-clamp assay (reference value: 1). The format is cell-based. The following applies: Oocyte, filed as agonist.
For assay [13] the target is unchanged. Put plainly: Desensitization of human alpha7 nAChR expressed in acetylcholine-treated xenopus laevis oocytes at 30 uM by two electrode voltage-clamp assay. The following applies: Oocyte. Type of assay: cell-based.
The target is the same in assay [14]. Kind of assay: Desensitization of human alpha7 nAChR expressed in acetylcholine-treated xenopus laevis oocytes at 30 uM pretreated with acetylcholine followed by compound treatment and re-treatment of acetylcholine thrice by two electrode voltage-clamp assay. The format is cell-based. The following applies: Oocyte.
Assay [15] has the same target. Kind of assay: Agonist activity at human alpha7 nAChR expressed in xenopus laevis oocytes assessed as activation of acetylcholine-induced response by two electrode voltage-clamp assay. The format is cell-based, Oocyte.
For assay [16] the target is unchanged. Put plainly: Silent agonist activity at human alpha7 nAChR expressed in acetylcholine-treated xenopus laevis oocytes assessed as relative response at 30 uM by two electrode voltage-clamp assay. Particulars: Oocyte, filed as agonist. Type of assay: cell-based.
The subject of assay [17] is Mus musculus. Put plainly: Anti-allodynic effect in C57BL/6J mouse model of CFA-induced chronic inflammatory pain assessed as reduction in mechanical hypersensitivity at 0.3 to 1 mg/kg, ip measured for 6 hrs. Type of assay: functional, organism-based. The following applies: dose 0.3-1 mg/kg.
Assay [18] concerns Mus musculus. Put plainly: Anti-inflammatory activity in C57BL/6J mouse model of CFA-induced chronic inflammatory pain assessed as reduction in paw edema at 1 mg/kg, ip measured for 0.5 to 6 hrs. Type of assay: functional, organism-based. The following applies: time 0.5-6 hrs.
In assay [19] the target is T2, Neuronal acetylcholine receptor subunit alpha-7. Put plainly: Silent agonist activity at human alpha7 nAChR expressed in acetylcholine-treated xenopus laevis oocytes assessed as potentiated response at 30 uM in presence of PNU-120596 by two electrode voltage-clamp assay. The format is cell-based. The following applies: Oocyte, filed as agonist.
For assay [20], the system named is Mus musculus. Kind of assay: Anti-nociceptive effect in CFA C57BL/6J mouse model with alpha7 nAChR knockout at 1 mg/kg, ip measured after 3 days. The format is functional, organism-based. Particulars: time 3.0 day.
Assay [21] has as its system Mus musculus. Put plainly: Anti-allodynic effect in C57BL/6J mouse model of CFA-induced chronic inflammatory pain assessed as reduction in mechanical hypersensitivity at 0.3 mg/kg, ip measured after 1 hr. The format is functional, organism-based.
The subject of assay [22] is Mus musculus. Put plainly: Anti-allodynic effect in C57BL/6J mouse model of CFA-induced chronic inflammatory pain assessed as reduction in mechanical hypersensitivity at 1 mg/kg, ip measured for 1 hr relative to control. The format is functional. Details: scale not given: the % may be the effect or the level left.
Assay [23] concerns Mus musculus. Put plainly: Effect on locomotor activity in C57BL/6J mouse model of CFA-induced chronic inflammatory pain at 1 mg/kg, ip measured for 0.5 to 6 hrs. Type of assay: functional, organism-based. The following applies: time 0.5-6 hrs.
Assay [24] deals with Mus musculus. Put plainly: Effect on von Frey responses in C57BL/6J mouse model of CFA-induced chronic inflammatory pain at 0.3 to 1 mg/kg, ip measured for 0.5 to 6 hrs. The format is functional, organism-based. Particulars: dose 0.3-1 mg/kg, time 0.5-6 hrs.
Assay [25] deals with T2, Neuronal acetylcholine receptor subunit alpha-7. Kind of assay: Desensitization of human alpha7 nAChR expressed in acetylcholine-treated xenopus laevis oocytes at 30 uM pretreated with acetylcholine followed by compound treatment and re-treatment of acetylcholine by two electrode voltage-clamp assay. The format is cell-based. Particulars: Oocyte.
In assay [26] the target is T1, Neuronal acetylcholine receptor subunit alpha-9. Kind of assay: Silent agonist activity at human alpha9 nAChR expressed in acetylcholine-treated xenopus laevis oocytes at 30 uM by two electrode voltage-clamp assay. The format is cell-based. The following applies: Oocyte, filed as agonist.
Assay [27] has the same target. Kind of assay: Activation of human alpha9 nAChR expressed in xenopus laevis oocytes at 30 uM by two electrode voltage-clamp assay. The following applies: Oocyte. The format is cell-based.

Results on 16 compounds are retold here after ChEMBL document CHEMBL6096724, “Sulfonium Moieties as Ammonium Bioisosteres: Novel Ligands for the Alpha7 Nicotinic Acetylcholine Receptor” (J Med Chem, 2025).

As a reminder, the IC50 is the concentration at which inhibition is half-maximal. One may read the EC50 as the concentration giving half of the maximal effect.

Active and inactive are the calls of the source. No cut-off for these calls is given here.

T1 sequence (Q9UGM1 whole entry): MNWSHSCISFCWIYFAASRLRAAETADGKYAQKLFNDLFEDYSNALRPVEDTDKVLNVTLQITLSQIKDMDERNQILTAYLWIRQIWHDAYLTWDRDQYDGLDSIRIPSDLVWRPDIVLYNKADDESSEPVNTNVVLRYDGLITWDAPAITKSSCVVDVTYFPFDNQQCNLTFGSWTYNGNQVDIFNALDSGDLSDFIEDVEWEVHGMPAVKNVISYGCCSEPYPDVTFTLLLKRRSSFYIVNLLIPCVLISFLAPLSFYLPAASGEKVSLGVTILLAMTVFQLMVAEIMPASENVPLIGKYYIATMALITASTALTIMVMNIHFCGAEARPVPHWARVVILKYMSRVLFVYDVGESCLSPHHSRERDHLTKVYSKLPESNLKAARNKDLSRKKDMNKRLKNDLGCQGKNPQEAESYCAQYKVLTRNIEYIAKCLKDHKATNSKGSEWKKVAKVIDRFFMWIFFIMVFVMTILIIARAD
T2 sequence (P36544 whole entry): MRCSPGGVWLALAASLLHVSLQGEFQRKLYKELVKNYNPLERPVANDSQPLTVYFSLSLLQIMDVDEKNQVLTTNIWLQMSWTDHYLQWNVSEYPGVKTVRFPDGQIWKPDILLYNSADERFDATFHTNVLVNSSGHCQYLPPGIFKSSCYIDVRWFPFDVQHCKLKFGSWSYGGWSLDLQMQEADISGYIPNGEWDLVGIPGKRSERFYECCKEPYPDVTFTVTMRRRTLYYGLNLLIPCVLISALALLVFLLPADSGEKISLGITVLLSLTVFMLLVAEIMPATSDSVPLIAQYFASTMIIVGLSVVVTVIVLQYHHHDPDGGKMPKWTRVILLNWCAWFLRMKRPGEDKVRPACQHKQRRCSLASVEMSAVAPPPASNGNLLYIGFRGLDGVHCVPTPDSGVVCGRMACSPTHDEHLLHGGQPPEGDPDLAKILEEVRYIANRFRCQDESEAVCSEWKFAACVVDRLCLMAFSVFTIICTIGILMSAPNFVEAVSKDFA

`C[S+]1CCCN(C(=O)c2ccc(-c3cccc(C(F)(F)F)c3)o2)CC1` (stereo unspecified): the IC50 in assay [1] was found to be 7.9 µM. For the same compound, in assay [2] (filed as agonist), the Activity result is given as “Active; Silent Agonist Activity Observed”.
Take `CCSCCNC(=O)c1ccc(-c2cccc(C(F)(F)F)c2)o1`: in assay [2], the outcome was inactive.
Still for that read-out and setting: then `C[S+](C)CCNC(=O)c1ccc(-c2cccc(C(F)(F)F)c2)o1`, with “inactive”.
`CC[S+]1CCCN(C(=O)c2ccc(-c3cccc(C(F)(F)F)c3)o2)CC1` (stereo unspecified): the result in assay [3] was Active. Besides, the results for the 50% inhibitory concentration (IC50) in assay [1] and in assay [4] were 4.03 µM and 26.3 µM, respectively.
In the case of `CC[S+](CC)CCNC(=O)c1ccc(-c2cccc(C(F)(F)F)c2)o1`, the result (in assay [3]; with Mus musculus [7]) was Active. The outcome with Mus musculus [5] and in the assay on Mus musculus [11] was inactive. In addition, the Activity entry with Mus musculus [6] and with Mus musculus [8] was “No effect” throughout. Further, in [4], the half-inhibitory concentration (IC50) was found to be 2.82 µM. Besides, the max activation in [9] came to 0.18. Moreover, the EC50 in assay [10] was 2.38 µM.
For the compound `CSCCNC(=O)c1ccc(-c2cccc(C(F)(F)F)c2)o1`, the outcome in [2] was inactive.
Consider `C[S+]1CCN(C(=O)c2ccc(-c3cccc(C(F)(F)F)c3)o2)CC1`, for which the max activation in [12] came to 0.26. Also, in assay [13] (filed as agonist), the Activity entry is on record as “Active; Silent Agonist Activity Observed”. Further, the result in assay [14] and in assay [2] was inactive. Further, the 50% effective concentration (EC50) in [15] worked out at 2.4 µM.
Turning to `CC[S+]1CCN(C(=O)c2ccc(-c3cccc(C(F)(F)F)c3)o2)CC1.O=S(=O)([O-])C(F)(F)F`, the Activity in assay [16] is 0.016; in assay [19], 11.2; in the assay with Mus musculus [22] it was 100%; in the assay with Mus musculus [23], “No effect”; in the assay with Mus musculus [24], “No effect”; in [2] (filed as agonist), “Active; Silent Agonist Activity Observed”. For the same compound, the outcome in the assay with Mus musculus [17] was inactive. Moreover, the result with Mus musculus [18], in the assay on Mus musculus [20] and in the assay with Mus musculus [21] was Active.
In the case of `O=C(c1ccc(-c2cccc(C(F)(F)F)c2)o1)N1CCCSCC1`, in assay [2], the result was inactive.
For the compound `C1C[S+]2CCC(CC2)N1`, the max activation in assay [12] worked out at 0.98. The outcome in [13], in [2] and in assay [25] was inactive. For the same compound, the EC50 in assay [15] was determined as 41 µM.
In the case of `O=C(c1ccco1)N1CC[S+]2CCC1CC2`, the outcome in assay [3] was Active.
Turning to `O=C(c1ccc(-c2cccc(C(F)(F)F)c2)o1)N1CCSCC1`, the outcome in assay [2] was inactive.
As to `CSCCCNC(=O)c1ccc(-c2cccc(C(F)(F)F)c2)o1`, the outcome in [2] was inactive.
With `O=C(c1ccc(-c2cccc(C(F)(F)F)c2)o1)N1CCN2CCC1CC2`, the Activity entry in [26] is reported as “Active; Silent Agonist Activity Observed”. Further, in assay [27], the outcome was inactive.
For `C[S+](C)CCCNC(=O)c1ccc(-c2cccc(C(F)(F)F)c2)o1`, the Activity entry in [2] (filed as agonist) is “Active; Silent Agonist Activity Observed”.
With `O=C(c1ccc(-c2cccc(C(F)(F)F)c2)o1)N1CC[S+]2CCC1CC2`, the result in [3] was Active. Also, the half-maximal inhibitory concentration (IC50) in [4] amounted to 5.24 µM.
